Test results from US7109174B2, “Anticonvulsant derivatives useful for preventing the development of type II diabetes mellitus and syndrome X” (Ortho-McNeil Pharmaceutical, Inc., priority 2000, dated 2006).

Test system: ob/ob mice
Experiment: ob/ob mice second study: topiramate in food for 118 days; skin lesions, glucose, insulin, glycosylated hemoglobin, body weight
Assay type: in vivo
Set-up: Glycosylated hemoglobin: unit not given here
Conditions: for Skin lesions Mild (mice) / Skin lesions Moderate (mice) / Skin lesions Severe (mice) / Skin lesions Total (mice): 180 mg/kg/day, N = 9
Excerpt: It is known that ob/ob mice when allowed to eat ad libitum, develop abnormally high blood levels of insulin (hyperinsulinemia), glucose (hyperglycemia), lesions of the skin, and a high level of glycosylated hemoglobin, all of which are hallmark signs of Type II diabetes mellitus (R. R. HENRY, Ann. Intern. Med. 1996, 124, 97–103; G. W. EDELSON, Clin. Podiatr. Med. Surg. 1998, 15, 41–48; P. R. JOHNSON, M. R. GREENWOOD, B. A. HORWITZ and J. S. STERN, Annu. Rev. Nutr. 1991, 11, 325–353). Based on this knowledge of the ob/ob mouse model, two studies were designed to determine the effect of compounds of formula (I) in these mice models.
In the second study, a uniform population of mice was divided into two groups. In one group of control mice, no topiramate was added to the food for the entire 118-day period. In a second group, topiramate was added to the food in amounts sufficient to give a daily dose of 60 mg/kg for 6 days, then a daily dose of 180 mg/kg for 112 days. During the course of the dosing period the mice were examined two-times a week for skin lesions. When skin lesions were evident, the severity was estimated based on the number and size of the lesions, and given a score ranging from mild to severe (Table 2). For four of the control mice their health deteriorated to the point that they either died or had to be euthanized. Three of these four control mice had lesions (two mice were classified as severe and one mice as mild). […] By comparison none of the nine mice treated with topiramate ever developed skin lesions (Table 2). After the 118-day period was completed, all surviving mice were sacrificed and blood was obtained and prepared for subsequent analysis of plasma glucose and insulin, and glycosylated hemoglobin. […] The body weight gain was similar in both groups throughout the study. Therfore, the beneficial effects of topiramate on the biological markers of the disease cannot be secondary to the potential beneficial effect that might arise from a loss of body eight.

CC1(C)O[C@@H]2[C@@H](CO[C@@]3(COS(N)(=O)=O)OC(C)(C)O[C@@H]23)O1 [Topiramate, 2,3:4,5-bis-O-(1-methylethylidene)-β-D-fructopyranose sulfamate]
level of blood glucose (60 mg/kg/day 6 days then 180 mg/kg/day 112 days in food, end of study, mean±SEM, n=9, P<0.05): 131 ± 13 mg/dL
Skin lesions Mild (mice) (Day 41): 0
Skin lesions Moderate (mice) (Day 41): 0
Skin lesions Severe (mice) (Day 41): 0
Skin lesions Total (mice) (Day 41): 0
Skin lesions Mild (mice) (Day 53): 0
Skin lesions Moderate (mice) (Day 53): 0
Skin lesions Severe (mice) (Day 53): 0
Skin lesions Total (mice) (Day 53): 0
Skin lesions Mild (mice) (Day 61): 0
Skin lesions Moderate (mice) (Day 61): 0
Skin lesions Severe (mice) (Day 61): 0
Skin lesions Total (mice) (Day 61): 0
Skin lesions Mild (mice) (Day 70): 0
Skin lesions Moderate (mice) (Day 70): 0
Skin lesions Severe (mice) (Day 70): 0
Skin lesions Total (mice) (Day 70): 0
Skin lesions Mild (mice) (Day 83): 0
Skin lesions Moderate (mice) (Day 83): 0
Skin lesions Severe (mice) (Day 83): 0
Skin lesions Total (mice) (Day 83): 0
Skin lesions Mild (mice) (Day 96): 0
Skin lesions Moderate (mice) (Day 96): 0
Skin lesions Severe (mice) (Day 96): 0
Skin lesions Total (mice) (Day 96): 0
Skin lesions Mild (mice) (Day 97): 0
Skin lesions Moderate (mice) (Day 97): 0
Skin lesions Severe (mice) (Day 97): 0
Skin lesions Total (mice) (Day 97): 0
Skin lesions Mild (mice) (Day 105): 0
Skin lesions Moderate (mice) (Day 105): 0
Skin lesions Severe (mice) (Day 105): 0
Skin lesions Total (mice) (Day 105): 0
Skin lesions Mild (mice) (Day 118): 0
Skin lesions Moderate (mice) (Day 118): 0
Skin lesions Severe (mice) (Day 118): 0
Skin lesions Total (mice) (Day 118): 0
body weight (day 118): 55.1 ± 1.3 g
body weight (day −1, n=9): 42.8 ± 1.1 g
insulin levels versus control (end of 118-day study): did not differ
Glycosylated hemoglobin (end of 118-day study, mean±SEM, n=9, P<0.01): 3.16±0.1
mice that ever developed skin lesions (nine topiramate-treated mice, 118-day period): none
body weight gain versus control (throughout the 118-day study): similar
blood glucose difference between groups (topiramate-treated versus control at end of 118-day study): 52%
Glycosylated hemoglobin reduction with topiramate treatment (versus surviving control mice, end of 118-day study): 48%
